System: mice
Experiment: In vivo delivery of FLuc-mRNA lipid nanoparticles in mice, in vivo imaging (IVIS)
Details: for % of organ targeting / IVIS: Fluc-mRNA LNP; for organ targeting specificity (spleen or lung), in words: Table 3, Fluc-mRNA, various formulations
Procedure: After the preparation was completed, the preparation was injected intramuscularly (mice rectus femoris muscle of the thigh), intravenously (mice tail vein), or intraperitoneal injection or subcutaneous injection (subcutaneous on the back), with approximately 75 μL per mouse, for a total of 3 mice. After a certain time of injection, in vivo imaging (PerkinElmer, IVIS Lumina III) was performed. 10-15 minutes before imaging, 200 μL of 15 mg/mL D-Luciferin working solution was injected intraperitoneally, and the imaging analysis was performed using an in vivo imager.

[1] = route IM, organ: liver, formulation, molar ratio and N/P as in the table
[2] = route IM, organ: lung, formulation, molar ratio and N/P as in the table
[3] = route IM, organ: muscle, formulation, molar ratio and N/P as in the table
[4] = route IM, organ: spleen, formulation, molar ratio and N/P as in the table
[5] = route IV, organ: body, formulation, molar ratio and N/P as in the table
[6] = route IV, organ: liver, formulation, molar ratio and N/P as in the table
[7] = route IV, organ: lung, formulation, molar ratio and N/P as in the table
[8] = route IV, organ: spleen, formulation, molar ratio and N/P as in the table
[9] = route IM, organ not given, formulation, molar ratio and N/P as in the table
[10] = route IV, organ not given, formulation, molar ratio and N/P as in the table

SMILES | % of organ targeting [1] [%] | IVIS [1] | % of organ targeting [2] [%] | IVIS [2] | IVIS [3] | % of organ targeting [4] [%] | IVIS [4] | IVIS [5] | % of organ targeting [6] [%] | IVIS [6] | % of organ targeting [7] [%] | IVIS [7] | % of organ targeting [8] [%] | IVIS [8] | IVIS [9] | organ targeting specificity (spleen or lung), in words | IVIS (route IH, organ: body, DSPE-PEG5000:DSPC:Chol:compound 1.40:11.15:38.95:48.50, N/P 30) | IVIS (route IH, organ: spleen, DSPE-PEG5000:DSPC:Chol:compound 1.40:11.15:38.95:48.50, N/P 30) | IVIS [10]
CCCCCCC(CCCCCC)C(=O)NCCNC(=O)C(O)CN(CCN(C)CCN(CC(O)C(=O)NCCNC(=O)C(CCCCCC)CCCCCC)CC(O)C(=O)NCCNC(=O)C(CCCCCC)CCCCCC)CC(O)C(=O)NCCNC(=O)C(CCCCCC)CCCCCC (stereo not shown) [Compound L0380] | 61.06 | 3.14E+07 | 1.54 | 7.90E+05 | 4.58E+08 | 37.40 | 1.92E+07 | 7.98E+09 | 96.36 | 2.14E+09 | 0.40 | 8.80E+06 | 3.24 | 7.18E+07 | – | – | – | – | –
CCCCCCCCN(C)C(=O)C(O)CN(CCN(C)CCN(CC(O)C(=O)N(C)CCCCCCCC)CC(O)C(=O)N(C)CCCCCCCC)CC(O)C(=O)N(C)CCCCCCCC (stereo not shown) [Compound L0352] | – | – | – | – | – | – | – | 1.95E+06 | 15.27 | 4.07E+05 | 8.93 | 2.38E+05 | 75.80 | 2.02E+06 | 4.47E+05 | – | – | – | –
CCCCCCCCC(CCCCCC)C(=O)OCCCCNC(=O)C(O)CN(CCCN(CC(O)C(=O)NCCCCOC(=O)C(CCCCCC)CCCCCCCC)CC(O)C(=O)NCCCCOC(=O)C(CCCCCC)CCCCCCCC)CCCN(CC(O)C(=O)NCCCCOC(=O)C(CCCCCC)CCCCCCCC)CC(O)C(=O)NCCCCOC(=O)C(CCCCCC)CCCCCCCC (stereo not shown) [Compound L0378] | 37.15 | 1.82E+05 | 12.65 | 6.19E+04 | 3.09E+07 | 50.19 | 2.45E+05 | 2.77E+08 | 45.43 | 5.93E+07 | 0.60 | 7.82E+05 | 53.97 | 7.04E+07 | – | strong targeting specificity to deliver to spleen | – | – | –
CCCCCCCCCCN(C)C(=O)C(O)CN(CCCN(CC(O)C(=O)N(C)CCCCCCCCCC)CC(O)C(=O)N(C)CCCCCCCCCC)CCCN(CC(O)C(=O)N(C)CCCCCCCCCC)CC(O)C(=O)N(C)CCCCCCCCCC (stereo not shown) [Compound L0353] | – | – | – | – | – | – | – | 1.21E+08 | 31.60 | 3.54E+07 | 2.97 | 3.33E+06 | 65.43 | 7.33E+07 | 1.68E+07 | – | – | – | –
CCCCCCC(CCCCC)C(=O)OCCCCNC(=O)C(O)CN(CCCN(C)CCCCN(CCC(O)C(=O)NCCOC(=O)C(CCCCCC)CCCCCC)C(O)C(=O)NCCCCOC(=O)C(CCCCCC)CCCCCC)CC(O)C(=O)NCCCCOC(=O)C(CCCCC)CCCCCC (stereo not shown) [Compound L0367] | – | – | – | – | – | – | – | 4.05E+07 | 3.91 | 3.83E+06 | 45.55 | 4.47E+07 | 37.59 | 3.69E+07 | 3.40E+07 | – | 1.65E+07 | 8.20E+03 | –
CCCCCCC(CCCCCC)C(=O)NCCOC(=O)C(O)CN(CCCN(CC(O)C(=O)OCCNC(=O)C(CCCCCC)CCCCCC)CC(O)C(=O)OCCNC(=O)C(CCCCCC)CCCCCC)CCCN(CC(O)C(=O)OCCNC(=O)C(CCCCCC)CCCCCC)CC(O)C(=O)OCCNC(=O)C(CCCCCC)CCCCCC (stereo not shown) [Compound L0363] | – | – | – | – | – | – | – | 6.16E+09 | – | 6.56E+08 | – | 4.56E+06 | – | 9.96E+06 | 2.08E+07 | – | – | – | –
CCCCCCC(CCCCCC)C(=O)NCCNC(=O)C(O)CN(CCCN(C)CCCN(CC(O)C(=O)NCCNC(=O)C(CCCCCC)CCCCCC)CC(O)C(=O)NCCNC(=O)C(CCCCCC)CCCCCC)CC(O)C(=O)NCCNC(=O)C(CCCCCC)CCCCCC (stereo not shown) [Compound L0379] | 35.55 | 1.37E+06 | 3.16 | 1.22E+05 | 2.68E+08 | 61.28 | 2.37E+06 | – | – | – | – | – | – | – | – | strong targeting specificity to deliver to spleen | – | – | 1.63E+09
CCCCCCC(CCCCCC)C(=O)OCCCCCCNC(=O)C(O)CN(CCCN(C)CCCN(CC(O)C(=O)NCCCCCCOC(=O)C(CCCCCC)CCCCCC)CC(O)C(=O)NCCCCCCOC(=O)C(CCCCCC)CCCCCC)CC(O)C(=O)NCCCCCCOC(=O)C(CCCCCC)CCCCCC (stereo not shown) [Compound L0358] | – | – | – | – | – | – | – | – | – | – | – | – | – | – | 1.45E+07 | – | – | – | –
CCCCCCCCCCCCNC(=O)C(O)CN(CCCN(C)CCN(C)CCCN(CC(O)C(=O)NCCCCCCCCCCCC)CC(O)C(=O)NCCCCCCCCCCCC)CC(O)C(=O)NCCCCCCCCCCCC (stereo not shown) [Compound L0365] | – | – | – | – | – | – | – | – | – | – | – | – | – | – | 1.24E+06 | – | – | – | –
CCCCCCC(CCCCCC)C(=O)OCCCCCCNC(=O)C(O)CN(CCCN(CC(O)C(=O)NCCCCCCOC(=O)C(CCCCCC)CCCCCC)CC(O)C(=O)NCCCCCCOC(=O)C(CCCCCC)CCCCCC)CCCN(CC(O)C(=O)NCCCCCCOC(=O)C(CCCCCC)CCCCCC)CC(O)C(=O)NCCCCCCOC(=O)C(CCCCCC)CCCCCC (stereo not shown) [Compound L0360] | – | – | – | – | – | – | – | – | – | – | – | – | – | – | 1.44E+07 | – | – | – | 4.50E+08
CCCCCCCCCCN(C)C(=O)C(O)CN(CCN(C)CCN(CC(O)C(=O)N(C)CCCCCCCCCC)CC(O)C(=O)N(C)CCCCCCCCCC)CC(O)C(=O)N(C)CCCCCCCCCC (stereo not shown) [Compound L0349] | – | – | – | – | – | – | – | – | – | – | – | – | – | – | 8.25E+04 | – | – | – | 5.98E+05
CCCCCCCCN(C)C(=O)C(O)CN(CCCN(CC(O)C(=O)N(C)CCCCCCCC)CC(O)C(=O)N(C)CCCCCCCC)CCCN(CC(O)C(=O)N(C)CCCCCCCC)CC(O)C(=O)N(C)CCCCCCCC (stereo not shown) [Compound L0354] | – | – | – | – | – | – | – | 1.35E+08 | 44.24 | 3.14E+07 | 1.31 | 9.31E+05 | 54.45 | 3.86E+07 | 6.90E+06 | – | – | – | –
CCCCCCC(CCCCCC)C(=O)NCCNC(=O)C(O)CN(CCCN(CC(O)C(=O)NCCNC(=O)C(CCCCCC)CCCCCC)CC(O)C(=O)NCCNC(=O)C(CCCCCC)CCCCCC)CCCN(CC(O)C(=O)NCCNC(=O)C(CCCCCC)CCCCCC)CC(O)C(=O)NCCNC(=O)C(CCCCCC)CCCCCC (stereo not shown) [Compound L0381] | – | – | – | – | – | – | – | 1.57E+08 | 86.51 | 8.07E+07 | 0.46 | 4.31E+05 | 13.03 | 1.22E+07 | 1.90E+07 | – | – | – | –
CCCCCCCCN(C)C(=O)C(O)CN(CCCN(C)CCCN(CC(O)C(=O)N(C)CCCCCCCC)CC(O)C(=O)N(C)CCCCCCCC)CC(O)C(=O)N(C)CCCCCCCC (stereo not shown) [Compound L0350] | – | – | – | – | – | – | – | 8.43E+06 | 0.95 | 2.94E+05 | 96.29 | 2.99E+07 | 2.76 | 8.57E+05 | 1.75E+05 | – | – | – | –
CCCCCCCCC(CCCCCC)C(=O)NCCOC(=O)C(O)CN(CCN(C)CCN(CC(O)C(=O)OCCNC(=O)C(CCCCCC)CCCCCCCC)CC(O)C(=O)OCCNC(=O)C(CCCCCC)CCCCCCCC)CC(O)C(=O)OCCNC(=O)C(CCCCCC)CCCCCCCC (stereo not shown) [Compound L0374] | – | – | – | – | – | – | – | – | – | – | – | – | – | – | 6.46E+07 | – | – | – | –
